Measurements from ChEMBL document CHEMBL3352459, “Synthesis and evaluation of N-acyl-substituted 1,2-benzisothiazol-3-one derivatives as caspase-3 inhibitors” (Bioorg Med Chem, 2014).
pIC50: −log10 of the molar value. Residues, ends and D or L forms follow the SMILES beside them. *: point of attachment. Cbz = O=C(OCc1ccccc1)*; CH2F = FC*

Tests used:
Caspase-7 = target: T1, Caspase-7 (Homo sapiens, UniProt P55210); experiment: Inhibition of recombinant human caspase-7 activity using Ac-DEVD-AMC as substrate preincubated for 10 mins by fluorescence assay
T1 sequence (P55210 whole entry): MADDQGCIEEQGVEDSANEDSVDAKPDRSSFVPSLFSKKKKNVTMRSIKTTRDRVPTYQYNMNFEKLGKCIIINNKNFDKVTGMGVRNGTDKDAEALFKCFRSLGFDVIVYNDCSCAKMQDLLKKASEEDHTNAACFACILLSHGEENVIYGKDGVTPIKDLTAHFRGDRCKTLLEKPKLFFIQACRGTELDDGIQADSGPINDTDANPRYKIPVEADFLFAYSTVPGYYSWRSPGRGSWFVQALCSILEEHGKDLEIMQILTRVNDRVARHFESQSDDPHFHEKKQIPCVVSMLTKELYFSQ

Caspase-3 = target: T2, Caspase-3 (Homo sapiens, UniProt P42574); experiment: Inhibition of recombinant human caspase-3 activity using Ac-DEVD-AMC as substrate preincubated for 10 mins by fluorescence assay
T2 sequence (P42574 whole entry): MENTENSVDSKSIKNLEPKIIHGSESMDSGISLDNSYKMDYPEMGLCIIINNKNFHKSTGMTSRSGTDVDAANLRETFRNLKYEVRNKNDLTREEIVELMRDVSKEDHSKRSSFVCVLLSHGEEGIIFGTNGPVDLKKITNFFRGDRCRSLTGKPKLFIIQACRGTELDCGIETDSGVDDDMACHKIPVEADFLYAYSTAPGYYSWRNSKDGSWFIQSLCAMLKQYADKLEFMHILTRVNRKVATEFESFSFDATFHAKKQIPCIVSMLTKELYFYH

Jurkat [1] = experiment: Antiapoptotic activity in camptothecin-induced human Jurkat cells assessed as apoptotic cells at 10 uM after 2 hrs using Annexin V-FITC and 7-AAD by flow cytometry relative to control; format: functional
Jurkat [2] = experiment: Antiapoptotic activity in camptothecin-induced human Jurkat cells assessed as apoptotic cells at 50 uM after 2 hrs using Annexin V-FITC and 7-AAD by flow cytometry relative to control; format: functional

Row | pIC50 (Caspase-7) | pIC50 (Caspase-3) | SMILES | Activity (Jurkat [1]) [%] | Activity (Jurkat [2]) [%]
1 | 6.95 | 6.96 | O=C(CCc1ccccc1)n1sc2ccccc2c1=O |  | 
2 | 6.96 | 7.02 | Cc1cccc(CCC(=O)n2sc3ccccc3c2=O)c1 |  | 
3 | 7.14 | 6.92 | Cc1ccc(CCC(=O)n2sc3ccccc3c2=O)cc1 |  | 
4 | 7.20 | 6.86 | COc1ccccc1CCC(=O)n1sc2ccccc2c1=O |  | 
5 | 7.27 | 7.46 | COc1cccc(CCC(=O)n2sc3ccccc3c2=O)c1 | 36.6 | 100
6 | 7.28 | 7.30 | COc1ccc(CCC(=O)n2sc3ccccc3c2=O)cc1 | 37.5 | 100
7 | 7.06 | 6.89 | O=C(CCc1ccccc1F)n1sc2ccccc2c1=O |  | 
8 | 6.80 | 7.33 | O=C(CCc1ccccc1Cl)n1sc2ccccc2c1=O |  | 
9 | 6.78 | 6.74 | O=C(CCCc1ccccc1)n1sc2ccccc2c1=O |  | 
10 | 7.01 | 6.58 | Cc1ccc(CCCC(=O)n2sc3ccccc3c2=O)cc1 |  | 
11 | 7.13 | 6.41 | COc1ccc(CCCC(=O)n2sc3ccccc3c2=O)cc1 |  | 
12 | 7.00 | 6.51 | O=C(CCCCc1ccccc1)n1sc2ccccc2c1=O |  | 
13 | 7.25 | 6.63 | O=C(CCC(=O)n1sc2ccccc2c1=O)c1cccs1 |  | 
14 | 6.94 | 6.90 | O=C(CCCc1cccs1)n1sc2ccccc2c1=O |  | 
15 | 6.81 |  | CC(=O)N[C@@H](CC(=O)O)C(=O)N[C@@H](CCC(=O)O)C(=O)N[C@H](C(=O)N[C@H](C=O)CC(=O)O)C(C)C |  | 

The remaining lines, values behind:

Row | SMILES | pIC50 (Caspase-7) | pIC50 (Caspase-3) | Activity (Jurkat [1]) [%] | Activity (Jurkat [2]) [%]
16 | O=C(Nc1ccc(N2CCOCC2)cc1)n1sc2ccccc2c1=O | 6.79 | 6.97 |  | 
17 | O=C(Cc1ccccc1)n1sc2ccccc2c1=O | 6.57 | 6.53 |  | 
18 | Cc1ccccc1CC(=O)n1sc2ccccc2c1=O | 6.43 | 6.70 |  | 
19 | Cc1cccc(CC(=O)n2sc3ccccc3c2=O)c1 | 6.74 | 6.47 |  | 
20 | Cc1ccc(CC(=O)n2sc3ccccc3c2=O)cc1 | 6.74 | 6.67 |  | 
21 | COc1ccccc1CC(=O)n1sc2ccccc2c1=O | 6.68 | 6.66 |  | 
22 | COc1cccc(CC(=O)n2sc3ccccc3c2=O)c1 | 6.68 | 6.26 |  | 
23 | COc1ccc(CC(=O)n2sc3ccccc3c2=O)cc1 | 6.67 | 5.87 |  | 
24 | O=C(Cc1ccccc1F)n1sc2ccccc2c1=O | 6.91 | 6.73 |  | 
25 | O=C(Cc1cccc(F)c1)n1sc2ccccc2c1=O | 6.34 | 6.05 |  | 
26 | O=C(Cc1ccc(F)cc1)n1sc2ccccc2c1=O | 6.22 | 5.92 |  | 
27 | O=C(Cc1ccccc1Cl)n1sc2ccccc2c1=O | 6.84 | 6.72 |  | 
28 | O=C(Cc1cccc(Cl)c1)n1sc2ccccc2c1=O | 6.22 | 6.57 |  | 
29 | O=C(Cc1ccc(Cl)cc1)n1sc2ccccc2c1=O | 6.23 | 6.67 |  | 
30 | O=C(Cc1ccc(O)cc1)n1sc2ccccc2c1=O | 6.48 | 6.49 |  | 
31 | O=C(Cc1ccc(Cl)c(Cl)c1)n1sc2ccccc2c1=O | 6.70 | 6.18 |  | 
32 | O=C(CCc1cccc(F)c1)n1sc2ccccc2c1=O | 7.11 | 7.06 |  | 
33 | O=C(CCc1ccc(F)cc1)n1sc2ccccc2c1=O | 7.22 | 6.95 |  | 
34 | O=C(CCc1ccc(Cl)cc1)n1sc2ccccc2c1=O | 7.14 | 7.24 |  | 
35 | O=C(Cc1cccs1)n1sc2ccccc2c1=O | 4.74 | 4.49 |  | 
36 | O=C(Cc1ccc(-c2ccccc2)cc1)n1sc2ccccc2c1=O | 6.94 | 6.85 |  | 
37 | O=C(Cc1ccc2ccccc2c1)n1sc2ccccc2c1=O | 6.53 | 6.58 |  | 
38 | O=C(Cc1ccc2c(c1)CCO2)n1sc2ccccc2c1=O | 6.73 | 6.65 |  | 
39 | COC(=O)C[C@H](NC(=O)[C@H](C)NC(=O)[C@@H](NC(=O)OCc1ccccc1)C(C)C)C(=O)CF (Cbz-Val-Ala-Asp(OMe)-CH2F) |  |  | 40.2 | 
